US8383094B2, “Hepatitis C virus inhibitors” (Bristol-Myers Squibb Company, priority 2008, dated 2013)
Like-named read-outs stand apart in the source and are kept apart here.

System: HCV 1b genotype
Experiment: HCV Replicon assay (HCV-neo replicon cells, wild-type)
Format: cell-based
Description: An HCV Replicon assay was utilized in the present disclosure, and was prepared, conducted and validated as described in commonly owned PCT/US2006/022197 and in O′Boyle et. al. Antimicrob Agents Chemother, 2005 April; 49(4):1346-53. Assay methods incorporating luciferase reporters have also been used as described (Apath.com).
HCV-neo replicon cells and replicon cells containing mutations in the NS5A region were used to test the currently described family of compounds. The compounds were determined to have more than 10-fold less inhibitory activity on cells containing mutations than wild-type cells. Thus, the compounds of the present disclosure can be effective in inhibiting the function of the HCV NS5A protein and are understood to be as effective in combinations as previously described in application PCT/US2006/022197 and commonly owned WO/04014852. Further, the compounds of the present disclosure can be effective against the HCV 1b genotype. It should also be understood that the compounds of the present disclosure can inhibit multiple genotypes of HCV. […] In one embodiment, compounds of the present disclosure are inhibitory versus 1a, 1b, 2a, 2b, 3a, 4a, and 5a genotypes.

[1] = HCV 1b genotype replicon, range class A-D, read-out: 1b EC50 (in μM or range)
[2] = Hepatitis C virus, HCV 1b genotype replicon, range class A-D, read-out: 1b EC50 (in μM or range)

| SMILES | EC50 [2] [µM] | also measured |
| --- | --- | --- |
| CC(C)OC(=O)N[C@@H](C(=O)N1CCC[C@H]1C(=O)Nc1ccc(C#Cc2ccc(NC(=O)[C@@H]3CCCN3C(=O)[C@H](NC(=O)OC(C)C)c3ccccc3)cc2)cc1)c1ccccc1 [VN57, Diisopropyl (1,2-ethynediylbis(4,1-phenylenecarbamoyl(2S)-2,1-pyrrolidinediyl((1R)-2-oxo-1-phenyl-2,1-ethanediyl)))biscarbamate] |  | EC50 [1]: < 0.00457 µM |
| COc1cccc2c(C(=O)N3CCC[C@H]3C(=O)Nc3ccc(C#Cc4ccc(NC(=O)[C@@H]5CCCN5C(=O)Cc5cccnc5)cc4)cc3)nc(Cl)cc12 [Example D45, (2S)-1-((3-Chloro-5-methoxy-1-isoquinolinyl)carbonyl)-N-(4-((4-((((2S)-1-(3-pyridinylacetyl)-2-pyrrolidinyl)carbonyl)amino)phenyl)ethynyl)phenyl)-2-pyrrolidinecarboxamide] | 0.1 to 0.999 |  |
| CC(=O)N1CCC[C@H]1C(=O)Nc1ccc(C#Cc2ccc(NC(=O)[C@@H]3CCCN3C(=O)Cc3cccnc3)nc2)cc1 [Example D57, (2S)-1-Acetyl-N-(4-((6-((((2S)-1-(3-pyridinylacetyl)-2-pyrrolidinyl)carbonyl)amino)-3-pyridinyl)ethynyl)phenyl)-2-pyrrolidinecarboxamide] | 1 to 10 |  |
| CC(=O)N1CCC[C@H]1C(=O)Nc1ccc(C#Cc2ccc(NC(=O)[C@@H]3CCCN3C(=O)Cc3ccccc3)nc2)cc1 [Example D55, (2S)-1-Acetyl-N-(4-((6-((((2S)-1-(phenylacetyl)-2-pyrrolidinyl)carbonyl)amino)-3-pyridinyl)ethynyl)phenyl)-2-pyrrolidinecarboxamide] | 0.1 to 0.999 |  |
| CN(C)[C@H](Cc1ccccc1)C(=O)N1CCC[C@H]1C(=O)Nc1ccc(C#Cc2ccc(NC(=O)[C@@H]3CCCN3C(=O)[C@@H](Cc3ccccc3)N(C)C)cc2)cc1 [VN28, (2S,2′S)-N,N′-(1,2-ethynediyldi-4,1-phenylene)bis(1-((2R)-2-(dimethylamino)-3-phenylpropanoyl)-2-pyrrolidinecarboxamide)] | < 0.00457 |  |
| CC(=O)N[C@H](C)C(=O)N1CCC[C@H]1C(=O)Nc1ccc(C#Cc2ccc(NC(=O)[C@@H]3CCCN3C(=O)[C@@H](C)NC(C)=O)cc2)cc1 [VN14, (2S,2′S)-N,N′-(1,2-ethynediyldi-4,1-phenylene)bis(1-((2R)-2-acetamidopropanoyl)-2-pyrrolidinecarboxamide)] | 0.00457 to 0.099 |  |
| C[C@@](O)(C(=O)N1CCC[C@H]1C(=O)Nc1ccc(C#Cc2ccc(NC(=O)[C@@H]3CCCN3C(=O)[C@@](C)(O)c3ccccc3)nc2)cn1)c1ccccc1 [Example D51, (2S,2′S)-N,N′-(1,2-ethynediyldi-5,2-pyridinediyl)bis(1-((2S)-2-hydroxy-2-phenylpropanoyl)-2-pyrrolidinecarboxamide)] | < 0.00457 |  |
| O=C(Nc1ccc(C#Cc2ccc(NC(=O)[C@@H]3CCCN3C(=O)C3(c4ccccc4)CC3)cc2)cc1)[C@@H]1CCCN1C(=O)C1(c2ccccc2)CC1 [VN4, (2S,2′S)-N,N′-(1,2-ethynediyldi-4,1-phenylene)bis(1-((1-phenylcyclopropyl)carbonyl)-2-pyrrolidinecarboxamide)] | < 0.00457 |  |
| O=C(Nc1ccc(C#Cc2ccc(NC(=O)[C@@H]3CCCN3C(=O)/C=C/c3ccccc3)nc2)cn1)[C@@H]1CCCN1C(=O)/C=C/c1ccccc1 [Example D49, (2S,2′S)-N,N′-(1,2-ethynediyldi-5,2-pyridinediyl)bis(1-((2E)-3-phenyl-2-propenoyl)-2-pyrrolidinecarboxamide)] | 0.1 to 0.999 |  |
| CCN(C)C(C(=O)N1CCC[C@H]1C(=O)Nc1ccc(C#Cc2ccc(NC(=O)[C@@H]3CCCN3C(=O)C(c3ccccc3)N(C)CC)cc2)cc1)c1ccccc1 (stereo partly drawn) [VN47, (2S,2′S)-N,N′-(1,2-ethynediyldi-4,1-phenylene)bis(1-((ethyl(methyl)amino)(phenyl)acetyl)-2-pyrrolidinecarboxamide)] | 0.00457 to 0.099 |  |
| O=C(Nc1ccc(C#Cc2ccc(NC(=O)[C@@H]3CCCN3C(=O)[C@@H](c3ccccc3)N3CCOCC3)cc2)cc1)[C@@H]1CCCN1C(=O)[C@@H](c1ccccc1)N1CCOCC1 [VN13, (2S,2′S)-N,N′-(1,2-ethynediyldi-4,1-phenylene)bis(1-((2R)-2-(4-morpholinyl)-2-phenylacetyl)-2-pyrrolidinecarboxamide)] | < 0.00457 |  |
| CCc1scnc1C(=O)N1CCC[C@H]1C(=O)Nc1ccc(C#Cc2ccc(NC(=O)[C@@H]3CCCN3C(=O)c3ncsc3CC)cc2)cc1 [Example D36.2, (2S,2′S)-N,N′-(4,4′-(ethyne-1,2-diyl)bis(4,1-phenylene))bis(1-(5-ethylthiazole-4-carbonyl)pyrrolidine-2-carboxamide)] |  | EC50 [1]: 0.00457 to 0.099 µM |
| CC(=O)N(C)C(C(=O)N1CCC[C@H]1C(=O)Nc1ccc(C#Cc2ccc(NC(=O)[C@@H]3CCCN3C(=O)C(c3ccccc3)N(C)C(C)=O)cc2)cc1)c1ccccc1 (single isomer, unassigned) [VN35] | 0.1 to 0.999 |  |
| O=C(Nc1cncc(C#Cc2cncc(NC(=O)[C@@H]3CCCN3C(=O)Cc3ccccc3)c2)c1)[C@@H]1CCCN1C(=O)Cc1ccccc1 [YQ2, (2S,2′S)-N,N′-(1,2-ethynediyldi-5,3-pyridinediyl)bis(1-(phenylacetyl)-2-pyrrolidinecarboxamide)] |  | EC50 (Hepatitis C virus, read-out: 1b EC50 (in μM or range), HCV 1b genotype replicon): 523 µM |
| CN(C)[C@H](C(=O)N1CCC[C@H]1C(=O)Nc1ccc(C#Cc2ccc(NC(=O)[C@@H]3CCCN3C(=O)[C@H](c3ccccc3)N(C)C)cc2)cc1)c1ccccc1 [VN22, (2S,2′S)-N,N′-(1,2-ethynediyldi-4,1-phenylene)bis(1-((2S)-2-(dimethylamino)-2-phenylacetyl)-2-pyrrolidinecarboxamide)] | < 0.00457 |  |
| CCC(O)(C(=O)N1CCC[C@H]1C(=O)Nc1ccc(C#Cc2ccc(NC(=O)[C@@H]3CCCN3C(=O)C(O)(CC)c3ccccc3)cc2)cc1)c1ccccc1 (stereo partly drawn) [VN10, (2S,2′S)-N,N′-(1,2-ethynediyldi-4,1-phenylene)bis(1-(2-hydroxy-2-phenylbutanoyl)-2-pyrrolidinecarboxamide)] | < 0.00457 |  |
| CCN(C)C(C(=O)N1CCC[C@H]1C(=O)Nc1ccc(C#Cc2ccc(NC(=O)[C@@H]3CCCN3C(=O)C(c3ccccc3)N(C)CC)cc2)cc1)c1ccccc1 (single isomer, unassigned) [VN36] | < 0.00457 |  |
| O=C1CN(C(C(=O)N2CCC[C@H]2C(=O)Nc2ccc(C#Cc3ccc(NC(=O)[C@@H]4CCCN4C(=O)C(c4ccccc4)N4CCNC(=O)C4)cc3)cc2)c2ccccc2)CCN1 (single isomer, unassigned) [VN33.5] |  | EC50 [1]: 0.1 to 0.999 µM |
| CN(C)[C@@H](C(=O)N1CCC[C@H]1C(=O)Nc1ccc(C#Cc2ccc(NC(=O)[C@@H]3CCCN3C(=O)[C@@H](c3ccc(F)cc3)N(C)C)cc2)cc1)c1ccc(F)cc1 [Example D36, (2S,2′S)-N,N′-(1,2-ethynediyldi-4,1-phenylene)bis(1-((2R)-2-(dimethylamino)-2-(4-fluorophenyl)acetyl)-2-pyrrolidinecarboxamide)] | < 0.00457 |  |
| O=C(Nc1ccc(C#Cc2ccc(NC(=O)[C@@H]3CCCN3C(=O)[C@H]3CCCO3)cc2)cc1)[C@H]1CCCO1 [Example D25, 1-((2R)-Tetrahydro-2-furanylcarbonyl)-N-(4-((4-(((2R)-tetrahydro-2-furanylcarbonyl)amino)phenyl)ethynyl)phenyl)-L-prolinamide] | 1 to 10 |  |
| CC(C)(C)O[C@@H]1C[C@@H](C(=O)Nc2ccc(C#Cc3ccc(NC(=O)[C@@H]4C[C@@H](OC(C)(C)C)CN4C(=O)OCc4ccccc4)cc3)cc2)N(C(=O)OCc2ccccc2)C1 [Example D8, Dibenzyl (2S,4R,2′S,4′R)-2,2′-(1,2-ethynediylbis(4,1-phenylenecarbamoyl))bis(4-tert-butoxy-1-pyrrolidinecarboxylate)] | 1 to 10 |  |
| O=C(Nc1ccc(C#Cc2ccc(NC(=O)[C@@H]3CCCN3C(=O)CC3CC3)cc2)cc1)[C@@H]1CCCN1C(=O)CC1CC1 [Example D37, (2S,2′S)-N,N′-(1,2-ethynediyldi-4,1-phenylene)bis(1-(cyclopropylacetyl)-2-pyrrolidinecarboxamide)] | 0.00457 to 0.099 |  |
| C=Cc1cccnc1C(=O)N1CCC[C@H]1C(=O)Nc1ccc(C#Cc2ccc(NC(=O)[C@@H]3CCCN3C(=O)c3ncccc3C=C)cc2)cc1 [Example D36.3, (2S,2′S)-N,N′-(4,4′-(ethyne-1,2-diyl)bis(4,1-phenylene))bis(1-(3-vinylpicolinoyl)pyrrolidine-2-carboxamide)] |  | EC50 [1]: 0.1 to 0.999 µM |
| CC(C)C(=O)N[C@@H](C(=O)N1CCC[C@H]1C(=O)Nc1ccc(C#Cc2ccc(NC(=O)[C@@H]3CCCN3C(=O)[C@H](NC(=O)C(C)C)c3ccccc3)cc2)cc1)c1ccccc1 [VN25, (2S,2′S)-N,N′-(1,2-ethynediyldi-4,1-phenylene)bis(1-((2R)-2-(isobutyrylamino)-2-phenylacetyl)-2-pyrrolidinecarboxamide)] | < 0.00457 |  |
| CN1Cc2ccccc2C1C(=O)N1CCC[C@H]1C(=O)Nc1ccc(C#Cc2ccc(NC(=O)[C@@H]3CCCN3C(=O)C3c4ccccc4CN3C)cc2)cc1 (stereo partly drawn) [VN39, (2S,2′S)-N,N′-(1,2-ethynediyldi-4,1-phenylene)bis(1-((2-methyl-2,3-dihydro-1H-isoindol-1-yl)carbonyl)-2-pyrrolidinecarboxamide)] |  | EC50 [1]: 0.1 to 0.999 µM |
| CC(=O)N1CCC[C@H]1C(=O)Nc1ccc(C#Cc2ccc(NC(=O)C3CC(=O)N(Cc4ccc(Cl)cc4)C3)cc2)cc1 (stereo partly drawn) [Example D13, 1-Acetyl-N-(4-((4-(((1-(4-chlorobenzyl)-5-oxo-3-pyrrolidinyl)carbonyl)amino)phenyl)ethynyl)phenyl)-L-prolinamide] | 1 to 10 |  |
